Measured values published in PubChem BioAssay (NCI).
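1) Cells in 96-well plates. 2) Compound, 48 h, 5 concentrations. 3) Linear interpolation between surrounding doses. 4) Unreached endpoint = highest concentration. The concentration for 50% growth inhibition is given as GI50. TGI: total growth inhibition.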

Experiments:
Experiment in all cases: NCI anticancer screen, dose series, 48 h
A549 NSCLC = test system: A549 NSCLC
NCI-H460 lung = test system: NCI-H460 lung
HL-60(TB) leukemia = test system: HL-60(TB) leukemia
HOP-62 NSCLC = test system: HOP-62 NSCLC
CCRF-CEM leukemia = test system: CCRF-CEM leukemia
SK-MEL-5 melanoma = test system: SK-MEL-5 melanoma
MDA-MB-435 = test system: MDA-MB-435
UACC-257 melanoma = test system: UACC-257 melanoma
M14 melanoma = test system: M14 melanoma
HCT-116 colon = test system: HCT-116 colon
SK-MEL-2 melanoma = test system: SK-MEL-2 melanoma
IGROV1 ovarian = test system: IGROV1 ovarian
ACHN renal = test system: ACHN renal
SNB-19 CNS = test system: SNB-19 CNS
CAKI-1 renal = test system: CAKI-1 renal
NCI-H522 lung = test system: NCI-H522 lung
NCI-H226 lung = test system: NCI-H226 lung
MOLT-4 leukemia = test system: MOLT-4 leukemia
MCF7 breast = test system: MCF7 breast
HCC-2998 colon = test system: HCC-2998 colon
PC-3 prostate = test system: PC-3 prostate
786-0 renal = test system: 786-0 renal
SK-OV-3 ovarian = test system: SK-OV-3 ovarian
OVCAR-5 ovarian = test system: OVCAR-5 ovarian
SW-620 colon = test system: SW-620 colon
HOP-92 NSCLC = test system: HOP-92 NSCLC
RXF 393 renal = test system: RXF 393 renal
RPMI-8226 leukemia = test system: RPMI-8226 leukemia
OVCAR-8 ovarian = test system: OVCAR-8 ovarian
KM12 colon = test system: KM12 colon
MDA-MB-231 breast = test system: MDA-MB-231 breast
A498 renal = test system: A498 renal
U251 CNS = test system: U251 CNS
SN12C renal = test system: SN12C renal
COLO 205 colon = test system: COLO 205 colon
HT29 colon = test system: HT29 colon
SR leukemia = test system: SR leukemia
T-47D breast = test system: T-47D breast
BT-549 breast = test system: BT-549 breast
DU-145 prostate = test system: DU-145 prostate
OVCAR-4 ovarian = test system: OVCAR-4 ovarian
SK-MEL-28 melanoma = test system: SK-MEL-28 melanoma
HS 578T breast = test system: HS 578T breast
SF-539 CNS = test system: SF-539 CNS
TK-10 renal = test system: TK-10 renal
UACC-62 melanoma = test system: UACC-62 melanoma
NCI/ADR-RES ovarian = test system: NCI/ADR-RES ovarian
MALME-3M melanoma = test system: MALME-3M melanoma
SF-295 CNS = test system: SF-295 CNS
NCI-H23 lung = test system: NCI-H23 lung
EKVX NSCLC = test system: EKVX NSCLC
UO-31 renal = test system: UO-31 renal
SNB-75 CNS = test system: SNB-75 CNS
SF-268 CNS = test system: SF-268 CNS
LOX IMVI melanoma = test system: LOX IMVI melanoma
K-562 leukemia = test system: K-562 leukemia
HCT-15 colon = test system: HCT-15 colon
OVCAR-3 ovarian = test system: OVCAR-3 ovarian

In the case of `N#Cc1cnc2ccc(-c3cnc(N)nc3)cc2c1N1CCc2cc(F)c(Cl)cc21`, the GI50 (A549 NSCLC) is reported as 479 nM, the TGI (A549 NSCLC) is reported as 13200 nM and the GI50 (NCI-H460 lung) is reported as 425 nM. It also gave a TGI (NCI-H460 lung) of 11000 nM, a GI50 (HL-60(TB) leukemia) of 705 nM and a TGI (HL-60(TB) leukemia) of 4380 nM. It also gave a GI50 (HOP-62 NSCLC) of 434 nM, a TGI (HOP-62 NSCLC) of over 21700 nM and a GI50 (CCRF-CEM leukemia) of 486 nM. For the same molecule, the TGI (CCRF-CEM leukemia) was over 100000 nM, the GI50 (SK-MEL-5 melanoma) was 1220 nM and the TGI (SK-MEL-5 melanoma) was 2520 nM. The GI50 (MDA-MB-435) was 495 nM, the TGI (MDA-MB-435) was 3560 nM and the GI50 (UACC-257 melanoma) was 1300 nM. The TGI (UACC-257 melanoma) was 6870 nM, the GI50 (M14 melanoma) was 612 nM and the TGI (M14 melanoma) was 8510 nM. For the same molecule, the GI50 (HCT-116 colon) was 917 nM, the TGI (HCT-116 colon) was 2640 nM and the GI50 (SK-MEL-2 melanoma) was 531 nM. The TGI (SK-MEL-2 melanoma) was 2020 nM, the GI50 (IGROV1 ovarian) was 235 nM and the TGI (IGROV1 ovarian) was 1260 nM. The GI50 (ACHN renal) was 489 nM, the TGI (ACHN renal) was 11900 nM and the GI50 (SNB-19 CNS) was 964 nM. It also gave a TGI (SNB-19 CNS) of 17200 nM, a GI50 (CAKI-1 renal) of 268 nM and a TGI (CAKI-1 renal) of 2800 nM. For the same molecule, the GI50 (NCI-H522 lung) was 1270 nM, the TGI (NCI-H522 lung) was 8080 nM and the GI50 (NCI-H226 lung) was 555 nM. For the same molecule, the TGI (NCI-H226 lung) was 11300 nM, the GI50 (MOLT-4 leukemia) was 577 nM and the TGI (MOLT-4 leukemia) was over 64600 nM. For the same molecule, the GI50 (MCF7 breast) was 300 nM, the TGI (MCF7 breast) was 14000 nM and the GI50 (HCC-2998 colon) was 572 nM. The TGI (HCC-2998 colon) was 7500 nM, the GI50 (PC-3 prostate) was 445 nM and the TGI (PC-3 prostate) was 12300 nM. For the same molecule, the GI50 (786-0 renal) was 425 nM, the TGI (786-0 renal) was 3950 nM and the GI50 (SK-OV-3 ovarian) was 391 nM. For the same molecule, the TGI (SK-OV-3 ovarian) was 3690 nM, the GI50 (OVCAR-5 ovarian) was 437 nM and the TGI (OVCAR-5 ovarian) was 11300 nM. It also gave a GI50 (SW-620 colon) of 977 nM, a TGI (SW-620 colon) of 10800 nM and a GI50 (HOP-92 NSCLC) of 201 nM. It also gave a TGI (HOP-92 NSCLC) of 1180 nM, a GI50 (RXF 393 renal) of 221 nM and a TGI (RXF 393 renal) of 1250 nM. For the same molecule, the GI50 (RPMI-8226 leukemia) was 325 nM, the TGI (RPMI-8226 leukemia) was 3190 nM and the GI50 (OVCAR-8 ovarian) was 453 nM. The TGI (OVCAR-8 ovarian) was 13900 nM, the GI50 (KM12 colon) was 773 nM and the TGI (KM12 colon) was 4180 nM. The GI50 (MDA-MB-231 breast) was 450 nM, the TGI (MDA-MB-231 breast) was 7930 nM and the GI50 (A498 renal) was 147 nM. For the same molecule, the TGI (A498 renal) was 552 nM, the GI50 (U251 CNS) was 714 nM and the TGI (U251 CNS) was 9580 nM. It also gave a GI50 (SN12C renal) of 395 nM, a TGI (SN12C renal) of 14700 nM and a GI50 (COLO 205 colon) of 795 nM. For the same molecule, the TGI (COLO 205 colon) was 2850 nM, the GI50 (HT29 colon) was 587 nM and the TGI (HT29 colon) was 9740 nM. The GI50 (SR leukemia) was 329 nM, the TGI (SR leukemia) was over 19900 nM and the GI50 (T-47D breast) was 233 nM. For the same molecule, the GI50 (BT-549 breast) was 239 nM, the TGI (BT-549 breast) was 1800 nM and the GI50 (DU-145 prostate) was 510 nM. It also gave a TGI (DU-145 prostate) of over 39500 nM, a GI50 (OVCAR-4 ovarian) of 314 nM and a TGI (OVCAR-4 ovarian) of 7240 nM. The GI50 (SK-MEL-28 melanoma) was 703 nM, the TGI (SK-MEL-28 melanoma) was 6730 nM and the GI50 (HS 578T breast) was 186 nM. The TGI (HS 578T breast) was 774 nM, the GI50 (SF-539 CNS) was 505 nM and the TGI (SF-539 CNS) was 3360 nM. The GI50 (TK-10 renal) was 260 nM, the TGI (TK-10 renal) was 2000 nM and the GI50 (UACC-62 melanoma) was 363 nM. For the same molecule, the TGI (UACC-62 melanoma) was 2600 nM, the GI50 (NCI/ADR-RES ovarian) was 827 nM and the TGI (NCI/ADR-RES ovarian) was 25900 nM. The GI50 (MALME-3M melanoma) was 366 nM, the TGI (MALME-3M melanoma) was 2960 nM and the GI50 (SF-295 CNS) was 311 nM. The TGI (SF-295 CNS) was 4490 nM, the GI50 (NCI-H23 lung) was 1010 nM and the TGI (NCI-H23 lung) was 9840 nM. It also gave a GI50 (EKVX NSCLC) of 496 nM, a TGI (EKVX NSCLC) of 3950 nM and a GI50 (UO-31 renal) of 142 nM. For the same molecule, the TGI (UO-31 renal) was 4640 nM, the GI50 (SNB-75 CNS) was 144 nM and the TGI (SNB-75 CNS) was 834 nM. It also gave a GI50 (SF-268 CNS) of 437 nM, a TGI (SF-268 CNS) of 5280 nM and a GI50 (LOX IMVI melanoma) of 355 nM. It also gave a TGI (LOX IMVI melanoma) of 7970 nM, a GI50 (K-562 leukemia) of 997 nM and a TGI (K-562 leukemia) of over 100000 nM. For the same molecule, the GI50 (HCT-15 colon) was 385 nM and the TGI (HCT-15 colon) was 11500 nM.

With `Nc1cc(-c2c[nH]c3ccc(F)cc23)nc2cc(-c3c[nH]c4ccc(F)cc34)nn12` the GI50 (HL-60(TB) leukemia) was 1940 nM, the TGI (HL-60(TB) leukemia) was 5360 nM and the GI50 (HOP-62 NSCLC) was 2060 nM. It also gave a TGI (HOP-62 NSCLC) of 5850 nM, a GI50 (CCRF-CEM leukemia) of 3130 nM and a TGI (CCRF-CEM leukemia) of over 100000 nM. For the same molecule, the GI50 (SK-MEL-5 melanoma) was 1840 nM, the TGI (SK-MEL-5 melanoma) was 3280 nM and the GI50 (MDA-MB-435) was 1740 nM. It also gave a TGI (MDA-MB-435) of 3390 nM, a GI50 (SK-MEL-2 melanoma) of 14600 nM and a TGI (SK-MEL-2 melanoma) of 35300 nM. For the same molecule, the GI50 (ACHN renal) was 1880 nM, the TGI (ACHN renal) was 3460 nM and the GI50 (SNB-19 CNS) was 3030 nM. It also gave a TGI (SNB-19 CNS) of 8970 nM, a GI50 (CAKI-1 renal) of 2030 nM and a TGI (CAKI-1 renal) of 5290 nM. For the same molecule, the GI50 (NCI-H226 lung) was 2280 nM, the TGI (NCI-H226 lung) was 5520 nM and the GI50 (MOLT-4 leukemia) was 2330 nM. The TGI (MOLT-4 leukemia) was 7290 nM, the GI50 (HCC-2998 colon) was 1950 nM and the TGI (HCC-2998 colon) was 3470 nM. For the same molecule, the GI50 (PC-3 prostate) was 2110 nM, the TGI (PC-3 prostate) was 5310 nM and the GI50 (OVCAR-5 ovarian) was 1830 nM. It also gave a TGI (OVCAR-5 ovarian) of 3770 nM, a GI50 (SW-620 colon) of 1780 nM and a TGI (SW-620 colon) of 3300 nM. The GI50 (RXF 393 renal) was 1880 nM, the TGI (RXF 393 renal) was 3480 nM and the GI50 (RPMI-8226 leukemia) was 3050 nM. The TGI (RPMI-8226 leukemia) was over 100000 nM, the GI50 (KM12 colon) was 2000 nM and the TGI (KM12 colon) was 4260 nM. For the same molecule, the GI50 (MDA-MB-231 breast) was 1850 nM, the TGI (MDA-MB-231 breast) was 3490 nM and the GI50 (A498 renal) was 1660 nM. For the same molecule, the TGI (A498 renal) was 3250 nM, the GI50 (SN12C renal) was 1920 nM and the TGI (SN12C renal) was 3730 nM. It also gave a GI50 (COLO 205 colon) of 1740 nM, a TGI (COLO 205 colon) of 3150 nM and a GI50 (HT29 colon) of 1800 nM. For the same molecule, the TGI (HT29 colon) was 3310 nM, the GI50 (BT-549 breast) was 13300 nM and the TGI (BT-549 breast) was 34900 nM. The GI50 (DU-145 prostate) was 2210 nM, the TGI (DU-145 prostate) was 4730 nM and the GI50 (SK-MEL-28 melanoma) was 1830 nM. The TGI (SK-MEL-28 melanoma) was 3330 nM, the GI50 (OVCAR-3 ovarian) was 1750 nM and the TGI (OVCAR-3 ovarian) was 3190 nM. For the same molecule, the GI50 (HS 578T breast) was 2350 nM, the TGI (HS 578T breast) was 5710 nM and the GI50 (TK-10 renal) was 2220 nM. The TGI (TK-10 renal) was 4190 nM, the GI50 (UO-31 renal) was 1680 nM and the TGI (UO-31 renal) was 3450 nM. It also gave a GI50 (SNB-75 CNS) of 16300 nM, a TGI (SNB-75 CNS) of 36600 nM and a GI50 (K-562 leukemia) of 2920 nM. The TGI (K-562 leukemia) was over 100000 nM, the GI50 (HCT-15 colon) was 1790 nM and the TGI (HCT-15 colon) was 3690 nM.
